Experimental data: PubChem BioAssay AID624321 (Sanford-Burnham Center for Chemical Genomics, 2012)
Converted amounts (≈) assume the structure as drawn. The source made the active and inactive calls. How the calls were made is not given here.

The compounds below were run on aqueous solubility in 1x PBS (assay: compound solubility in 1x PBS – biophysical, set 2, ADME assay (AID 624321)). Conditions: at 100 µM; hits give high values.

| SMILES | solubility |
| --- | --- |
| O=C(COC(=O)C12CC3CC(CC(C3)C1)C2)NCc1ccco1 | < 0.01 µg/mL (inactive) |
| COc1ccccc1N(/N=C1\Sc2ccccc2C1=O)C(C)=O | 3.7 µg/mL (inactive) (≈ 11.3 µM) |
| CCCOc1ccc(-c2nc(OC)c3ccccc3n2)cc1 | < 0.01 µg/mL (inactive) |
| O=C(CSc1cccc2cccnc12)N1CCCC1 | > 27 µg/mL |
| C=CCn1c(SCC(=O)c2ccc(O)c(O)c2)nnc1-c1ccccc1OC | 26 µg/mL (≈ 65.4 µM) |
| O=c1[nH]c2c(s1)C(c1cccnc1)C1C3CCC(C3)C1S2 (centres undefined) | > 31 µg/mL |
| Cn1nnnc1Sc1ncnc2scc(-c3ccccc3)c12 | 2.4 µg/mL (inactive) (≈ 7.35 µM) |
| Cc1ccc(-n2c(N)c(C#N)c(-c3ccccc3)c(C#N)c2=O)cc1 | 0.83 µg/mL (inactive) (≈ 2.54 µM) |
| O=C(CCNS(=O)(=O)c1cccc2nsnc12)N1CCN(c2ccccn2)CC1 | > 43 µg/mL |
| O=C(O)c1cccnc1SCCc1ccccc1 | > 26 µg/mL |
| Cc1ccc(NS(=O)(=O)c2ccc3c(c2)CCC(=O)N3)cc1C | 24.4 µg/mL (≈ 73.8 µM) |
| N#Cc1ccccc1CSc1nc2ncc(Br)cc2[nH]1 | 0.42 µg/mL (inactive) (≈ 1.22 µM) |
| O=c1oc2c(O)c(O)cc3c(=O)oc4c(O)c(O)cc1c4c23 | > 30 µg/mL |
| CCN1CCN(c2nc3ccccc3nc2C(C#N)C(=O)OC2CCCCC2)CC1 (centres undefined) | 24.3 µg/mL (≈ 59.6 µM) |
| COc1ccc(OC)c(-c2nnc3n2N=C(c2ccc(OC)c(OC)c2)CS3)c1 | 26.8 µg/mL (≈ 65 µM) |
| O=C1NCCCc2c1oc1ccc(O)cc21 | 16.8 µg/mL (≈ 77.3 µM) |
| Cc1nc(SCc2nc3ccccc3[nH]2)c2oc3ccccc3c2n1 | 0.15 µg/mL (inactive) (≈ 0.433 µM) |
| COc1ccc(CSc2nc(C)cc(=O)[nH]2)cc1 | > 26 µg/mL |
| CC(C)(C)OC(=O)NCCc1nnc(S(=O)(=O)Cc2ccc(Cl)cc2Cl)o1 | 5.8 µg/mL (inactive) (≈ 13.3 µM) |
| CCCc1cc(C(=O)N(C2CCCCC2)C2CCCCC2)no1 | 1.5 µg/mL (inactive) (≈ 4.71 µM) |
| Cc1cc(-c2nnc3n2CCCCC3)c(C)n1-c1ccccc1 | > 30 µg/mL |
| CCOC(=O)C(C)Oc1cccc2c(=O)n(CC(=O)Nc3ccc4c(c3)OCCO4)ccc12 (centres undefined) | 0.35 µg/mL (inactive) (≈ 0.774 µM) |
| CC(C)C(=O)NC(c1ccco1)c1ccc2cccnc2c1O (centres undefined) | 3.3 µg/mL (inactive) (≈ 10.6 µM) |

| SMILES | solubility |
| --- | --- |
| CCOc1ccc(-c2nc(-c3ccncc3)no2)cc1OCC | 0.77 µg/mL (inactive) (≈ 2.47 µM) |
| COc1ccc(C2c3c(ncn(CCN4CCOCC4)c3=N)Oc3ccc4ccccc4c32)cc1OC (centres undefined) | 35.4 µg/mL (≈ 71 µM) |
| c1ccc(-c2nnc(N3CCOCC3)nc2-c2ccccc2)cc1 | 2.1 µg/mL (inactive) (≈ 6.6 µM) |
| O=[N+]([O-])c1ccc(CN2CCOCCOCCN(Cc3ccc([N+](=O)[O-])cc3)CCOCC2)cc1 | 21.7 µg/mL (≈ 44.4 µM) |
| CC1CCCN(C(C(=O)Nc2ccc3c(c2)OCCO3)c2ccccc2)C1 (centres undefined) | 5.2 µg/mL (inactive) (≈ 14.2 µM) |
| Cc1ccc(S(=O)(=O)NCc2ccc(C(=O)NCCN(Cc3ccccc3)C(C)C)cc2)cc1 | 18.6 µg/mL (≈ 38.8 µM) |
| CS(=O)(=O)c1ccc(C(=O)OCC(=O)NC23CC4CC(CC(C4)C2)C3)cc1[N+](=O)[O-] | 4.8 µg/mL (inactive) (≈ 11 µM) |
| COc1ccc(OC)c(S(=O)(=O)Nc2cnc3ccccc3c2)c1 | 25.6 µg/mL (≈ 74.3 µM) |
| O=C(O)c1ccc(N2C(=O)/C(=C/c3ccc(-c4ccc([N+](=O)[O-])cc4)o3)C=C2c2ccccc2)cc1 | 0.92 µg/mL (inactive) (≈ 1.92 µM) |
| O=S1(=O)Nc2c(ccc3cccnc23)-c2ccccc21 | > 28 µg/mL |
| COC(=O)c1ccccc1NC(=O)c1ccc(F)cc1 | 0.94 µg/mL (inactive) (≈ 3.44 µM) |
| Cc1ccnc(NC(=O)CCCOc2cc(=O)n(C)c3ccccc23)c1 | 8.3 µg/mL (inactive) (≈ 23.6 µM) |
| N#C/C(=C\c1ccc([N+](=O)[O-])o1)c1nc2ccccc2[nH]1 | 0.17 µg/mL (inactive) (≈ 0.607 µM) |
| CCCN(CCC)CCNC(=O)C1CCN(Cc2nc(-c3ccc(Cl)cc3)oc2C)CC1 | > 46 µg/mL |
| CCc1nnc(NC(=O)c2ccc(NS(=O)(=O)c3ccccc3)cc2)s1 | 1.3 µg/mL (inactive) (≈ 3.35 µM) |
| COc1ccc(S(=O)(=O)N2CCN(S(=O)(=O)c3ccc4c(c3)OCCO4)CC2)cc1 | 0.26 µg/mL (inactive) (≈ 0.572 µM) |
| Cc1cc(C(=O)CN2C(=O)CCC2=O)c(C)n1Cc1ccccc1 | 17.8 µg/mL (≈ 54.9 µM) |
| COc1nc(-c2ccccc2)nnc1-c1ccccc1 | 0.18 µg/mL (inactive) (≈ 0.684 µM) |
| COc1ccc(C2CC(c3ccccc3)=NN2c2ccc(S(N)(=O)=O)cc2)cc1 (centres undefined) | 0.02 µg/mL (inactive) (≈ 0.0491 µM) |
| Cc1ccc(S(=O)(=O)C(c2ccccc2)c2c(C)noc2C)cc1 (centres undefined) | 17.9 µg/mL (≈ 52.4 µM) |
| COc1ccc(CNCc2cccc3ccccc23)cc1 | 29.6 µg/mL (≈ 107 µM) |
| Cc1cc(C)nc(-n2nc(C)c(Sc3ccc(F)cc3)c2N)n1 | 4.8 µg/mL (inactive) (≈ 14.6 µM) |
| Oc1cc(O)cc(/C=C/c2ccc(O)c(O)c2)c1 | 6.5 µg/mL (inactive) (≈ 26.6 µM) |

| SMILES | solubility |
| --- | --- |
| NC(=O)C1CCN(c2nc(-c3ccc(Br)cc3)cs2)CC1 | 0.14 µg/mL (inactive) (≈ 0.382 µM) |
| Brc1ccc2c(c1)CN1CCCC1=N2 | > 25 µg/mL |
| C/C=C/Cn1c(SCCCc2ccccc2)nc2c1c(=O)[nH]c(=O)n2C | 0.19 µg/mL (inactive) (≈ 0.513 µM) |
| COc1cc(NC(=O)c2cc(C3CC3)on2)c(OC)cc1Cl | < 0.01 µg/mL (inactive) |
| Cc1ccc(S(=O)(=O)n2c(N)nc3ccccc32)cc1 | 1.8 µg/mL (inactive) (≈ 6.26 µM) |
| COc1cccc(-c2nc(-c3ccc(NC(=O)Cc4ccccc4OC)cc3)no2)c1 | 0.04 µg/mL (inactive) (≈ 0.0963 µM) |
| CN(C)c1oc(-c2ccc(OCc3ccc(Cl)cc3)cc2)nc1C#N | 0.03 µg/mL (inactive) (≈ 0.0848 µM) |
| COc1ccc(Sc2ccc(NC(=O)c3ccccc3Cl)cc2C#N)cc1 | < 0.01 µg/mL (inactive) |
| O=C(O)CCC(NS(=O)(=O)c1ccc(-c2ccccc2)cc1)C(=O)O (centres undefined) | > 36 µg/mL |
| c1ccc(CC2CCN(c3ncnc4sccc34)CC2)cc1 | 0.03 µg/mL (inactive) (≈ 0.0969 µM) |
| CCCC(=O)Nc1cccc(NC(=O)c2ccccc2Br)c1 | > 36 µg/mL |
| Cc1ccc(C)c(OCCn2cc(C(=O)O)c3ccccc32)c1 | 25.1 µg/mL (≈ 81.1 µM) |
| O=C(COc1ccccc1Br)NCCc1nc2ccccc2[nH]1 | 29.4 µg/mL (≈ 78.6 µM) |
| O=c1[nH]c(SCc2ccc(Cl)cc2)nc2c1CCC2 | 0.62 µg/mL (inactive) (≈ 2.12 µM) |
| Cn1cnc([N+](=O)[O-])c1Sc1ncnc2nc[nH]c12 | > 27 µg/mL |
| Cc1ccc(N2CCN(S(=O)(=O)N3CCCCC3)CC2)c(C)c1 | 1.4 µg/mL (inactive) (≈ 4.15 µM) |
| CCCn1ncc(CN2CCCC(C(=O)c3cccc(OC(C)C)c3)C2)c1C (centres undefined) | 29.6 µg/mL (≈ 77.2 µM) |
| CC[C@H]1CN2CCc3cc(OC)c(OC)cc3[C@@H]2C[C@@H]1C[C@H]1NCCc2cc(OC)c(OC)cc21 | > 55 µg/mL |
| O=c1c2ccccc2[se]n1-c1ccccc1 | 7.2 µg/mL (inactive) (≈ 26.3 µM) |
| Cc1ccc(C(=O)n2c3ccccc3c3ccccc32)cc1 | 0.03 µg/mL (inactive) (≈ 0.105 µM) |
| COc1ccc(N(C(=O)CCl)C(C(=O)NCCc2ccccc2)c2cccs2)cc1Cl (centres undefined) | 0.51 µg/mL (inactive) (≈ 1.07 µM) |
| Cc1cccc(-n2cnc3cc(C(=O)N4CCCCC4)ccc32)c1 | 26.3 µg/mL (≈ 82.3 µM) |
| CN1CSC(=S)N(C)C1 | > 16 µg/mL |

| SMILES | solubility |
| --- | --- |
| COc1ccc(S(=O)(=O)n2nc(OC(=O)c3ccccc3)cc2N)cc1 | 1.1 µg/mL (inactive) (≈ 2.95 µM) |
| CCc1oc2ccccc2c1C(=O)c1cc(Br)c(O)c(Br)c1 | > 42 µg/mL |
| O=C(O)c1ccccc1OCc1ccccc1Br | > 30 µg/mL |
| Cc1cc2c(s1)c1cnn(Cc3ccccc3F)c(=O)c1n2C | 0.08 µg/mL (inactive) (≈ 0.244 µM) |
| CSc1nc(-c2ccc(C)cc2)nc(C(Cl)Cl)n1 | 0.07 µg/mL (inactive) (≈ 0.233 µM) |
| c1ccc2c(Nc3nnc(-c4ccncc4)s3)cccc2c1 | 2.7 µg/mL (inactive) (≈ 8.87 µM) |
| CCCc1nc2c(=O)n(C)c(=O)nc-2n(C)n1 | > 23 µg/mL |
| CN(C)c1nc(N)nc(CSc2nnnn2-c2cccc3ccccc23)n1 | 0.65 µg/mL (inactive) (≈ 1.71 µM) |
| CCOc1ccc(NC(=S)N2CCC(C(O)(c3ccccc3)c3ccccc3)CC2)cc1 | 0.92 µg/mL (inactive) (≈ 2.06 µM) |
| CC(=O)c1ccc(N2CCN(S(=O)(=O)c3ccc4c(c3)CC(=O)N4)CC2)cc1 | 3 µg/mL (inactive) (≈ 7.51 µM) |
| O=C(c1ccccn1)N(Cc1cccs1)C1(C(=O)NC2CCCCC2)CCCCC1 | 7.3 µg/mL (inactive) (≈ 17.2 µM) |
| O=C1C2CC=CCC2C(=O)N1c1n[nH]c(-c2ccccc2)n1 (centres undefined) | > 29 µg/mL |
| O=S(=O)(NC1CCCCC1N1CCOCC1)c1ccc(Cl)cc1 (centres undefined) | > 36 µg/mL |
| Cc1ccc(C)c(NS(=O)(=O)c2cc(C(=O)Nc3ccccc3-c3ccccc3)ccc2Cl)c1 | 0.43 µg/mL (inactive) (≈ 0.876 µM) |
| Cc1cc(C)n(-c2nc(NCCCO)c3c4c(sc3n2)CCCC4)n1 | 17.1 µg/mL (≈ 47.8 µM) |
| CCCN1CNc2c(c(=O)[nH]c(=S)n2CCc2ccc(OC)c(OC)c2)C1 | > 39 µg/mL |
| Cc1ccccc1N1CCN(c2ncnc3c2cnn3Cc2ccc(Cl)cc2)CC1 | 0.01 µg/mL (inactive) (≈ 0.0239 µM) |
| O=C1CCCC2=C1C1(CCCC1)N=C(Nc1nc3ccccc3o1)N2 | 0.13 µg/mL (inactive) (≈ 0.386 µM) |
| CN(C)C1=C(Cl)C(=O)N(c2ccc(Cl)c(Cl)c2)C1=O | < 0.01 µg/mL (inactive) |
| Cc1ccc(NC(=O)CCC(=O)N/N=C/c2ccc([N+](=O)[O-])o2)cc1C | 0.43 µg/mL (inactive) (≈ 1.2 µM) |
